Key:
Format in all cases: cell-based
Citrobacter diversus = test: MIC against Gram-negative bacteria: Citrobacter diversus; conditions: 5×10^5 CFU/mL
Summary of the method: (§1)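 First, colonies from LB agar were grown in LB at 37° C, 185 rpm, to McFarland turbidity 0.5, then centrifuged and resuspended in fresh LB. Next, wells received 5×10^5 CFU/mL bacteria plus two-fold serially diluted EGF domain protein (triplicate). Finally, plates were shaken at 37° C and the no-growth concentration taken as MIC.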

E. coli DH5α = test: Antibacterial activity: MIC and growth curve against E. coli DH5α in 96-well plate; conditions: minimal inhibitory concentration against E. coli DH5α; 96-well plate, 5×10^5 CFU/mL, 37° C., judged after 8 h
Summary of the method: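 Log-phase bacteria (OD600 ~0.5) resuspended in LB at 5×10^5 CFU/mL, exposed to recombinant protein at 50, 25, 12.5 μg/mL final in triplicate, 37 °C shaking at 175 rpm. OD600 read every 30 min; MIC is lowest concentration showing no growth.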

Serratia marcescens = test: MIC against Gram-negative bacteria: Serratia marcescens; conditions: 5×10^5 CFU/mL
Summary of the method: as §1

E. coli BL21 = test: MIC against Gram-negative bacteria: E. coli BL21; conditions: 5×10^5 CFU/mL
Summary of the method: as §1

Klebsiella pneumonia = test: MIC against Gram-negative bacteria: Klebsiella pneumonia; conditions: 5×10^5 CFU/mL
Summary of the method: as §1

Proteus mirabilis = test: MIC against Gram-negative bacteria: Proteus mirabilis; conditions: 5×10^5 CFU/mL
Summary of the method: as §1

Pseudomonas aeruginosa = test: MIC against Gram-negative bacteria: Pseudomonas aeruginosa; conditions: 5×10^5 CFU/mL
Summary of the method: as §1

Enterobacter cloacae = test: MIC against Gram-negative bacteria: Enterobacter cloacae; conditions: 5×10^5 CFU/mL
Summary of the method: as §1

Moraxella catarrhalis = test: MIC against Gram-negative bacteria: Moraxella catarrhalis; conditions: 5×10^5 CFU/mL
Summary of the method: as §1

Aeromonas hydrophila = test: MIC against Gram-negative bacteria: Aeromonas hydrophila; conditions: 5×10^5 CFU/mL
Summary of the method: as §1

Proteus vulgaris = test: MIC against Gram-negative bacteria: Proteus vulgaris; conditions: 5×10^5 CFU/mL
Summary of the method: as §1

[1] = Citrobacter diversus, 96-well plate, 37° C., 10 h
[2] = Serratia marcescens, 96-well plate, 37° C., 10 h
[3] = E. coli BL21, 96-well plate, 37° C., 10 h
[4] = Klebsiella pneumonia, 96-well plate, 37° C., 10 h
[5] = Proteus mirabilis, 96-well plate, 37° C., 10 h
[6] = Pseudomonas aeruginosa, 96-well plate, 37° C., 10 h
[7] = Enterobacter cloacae, 96-well plate, 37° C., 10 h
[8] = Moraxella catarrhalis, 96-well plate, 37° C., 10 h
[9] = Aeromonas hydrophila, 96-well plate, 37° C., 10 h
[10] = Proteus vulgaris, 96-well plate, 37° C., 10 h

PRT16 (EKSPCQPNPCHGAAPCRVLPEGGAQCECPLGREGTFCQ; listed as Homo sapiens)
25 µg/mL: MIC (μg/mL) C. diversus (Citrobacter diversus; [1]) | MIC (μg/mL) S. marcescens (Serratia marcescens; [2]) | MIC (μg/mL) P. aeruginosa (Pseudomonas aeruginosa; [6]) | MIC (μg/mL) P. vulgaris (Proteus vulgaris; [10])
12.5 µg/mL: MIC (E. coli DH5α) | MIC (μg/mL) E. coli BL21 (E. coli BL21; [3]) | MIC (μg/mL) K. pneumonia (Klebsiella pneumonia; [4]) | MIC (μg/mL) E. cloacae (Enterobacter cloacae; [7]) | MIC (μg/mL) M. catarrhalis (Moraxella catarrhalis; [8])
50 µg/mL: MIC (μg/mL) P. mirabilis (Proteus mirabilis; [5]) | MIC (μg/mL) A. hydrophila (Aeromonas hydrophila; [9])

PRT1328 (LINVCLTKNGGCSEFAICNHTGQVERTCTCKPNYIGDGFT; listed as Homo sapiens)
25 µg/mL: MIC against M. catarrhalis (Moraxella catarrhalis; [8]) | MIC against A. hydrophila (Aeromonas hydrophila; [9])
12.5 µg/mL: MIC against C. diversus (Citrobacter diversus; [1]) | MIC (E. coli DH5α) | MIC against E. coli BL21 (E. coli BL21; [3]) | MIC against K. pneumonia (Klebsiella pneumonia; [4]) | MIC against P. vulgaris (Proteus vulgaris; [10])
50 µg/mL: MIC against S. marcescens (Serratia marcescens; [2]) | MIC against P. mirabilis (Proteus mirabilis; [5]) | MIC against P. aeruginosa (Pseudomonas aeruginosa; [6]) | MIC against E. cloacae (Enterobacter cloacae; [7])

PRT622 (CNCNPMGSEPVGCRSDGTCVCKPGFGGPNC; listed as Homo sapiens)
12.5 µg/mL: MIC S. marcescens (Serratia marcescens; 96-well plate, 37° C., 10 h) | MIC M. catarrhalis (Moraxella catarrhalis; 96-well plate, 37° C., 10 h) | MIC A. hydrophila (Aeromonas hydrophila; 96-well plate, 37° C., 10 h) | MIC P. vulgaris (Proteus vulgaris; 96-well plate, 37° C., 10 h)
25 µg/mL: MIC (E. coli DH5α) | MIC P. aeruginosa (Pseudomonas aeruginosa; 96-well plate, 37° C., 10 h) | MIC E. cloacae (Enterobacter cloacae; 96-well plate, 37° C., 10 h)
50 µg/mL: MIC C. diversus (Citrobacter diversus; 96-well plate, 37° C., 10 h) | MIC E. coli BL21 (E. coli BL21; 96-well plate, 37° C., 10 h) | MIC K. pneumonia (Klebsiella pneumonia; 96-well plate, 37° C., 10 h) | MIC P. mirabilis (Proteus mirabilis; 96-well plate, 37° C., 10 h)

PRT1451 (EARWCSECHSNATCTEDEAVTTCTCQEGFTGDGLTCV; listed as Homo sapiens)
25 µg/mL: MIC against C. diversus (Citrobacter diversus; Citrobacter diversus, 10 h cultivation at 37° C.) | MIC (E. coli DH5α) | MIC against P. aeruginosa (Pseudomonas aeruginosa; Pseudomonas aeruginosa, 10 h cultivation at 37° C.) | MIC against E. cloacae (Enterobacter cloacae; Enterobacter cloacae, 10 h cultivation at 37° C.)
12.5 µg/mL: MIC against S. marcescens (Serratia marcescens; Serratia marcescens, 10 h cultivation at 37° C.) | MIC against E. coli BL21 (E. coli BL21; E. coli BL21, 10 h cultivation at 37° C.) | MIC against K. pneumonia (Klebsiella pneumonia; Klebsiella pneumonia, 10 h cultivation at 37° C.) | MIC against P. mirabilis (Proteus mirabilis; Proteus mirabilis, 10 h cultivation at 37° C.) | MIC against M. catarrhalis (Moraxella catarrhalis; Moraxella catarrhalis, 10 h cultivation at 37° C.) | MIC against A. hydrophila (Aeromonas hydrophila; Aeromonas hydrophila, 10 h cultivation at 37° C.) | MIC against P. vulgaris (Proteus vulgaris; Proteus vulgaris, 10 h cultivation at 37° C.)

PRT1343 (VFHECFFNPCHNSGTCQQLGRGYVCLCPLGYTGLKCE; listed as Homo sapiens)
25 µg/mL: MIC against E. coli BL21 (E. coli BL21; [3]) | MIC against K. pneumonia (Klebsiella pneumonia; [4]) | MIC against E. cloacae (Enterobacter cloacae; [7]) | MIC against M. catarrhalis (Moraxella catarrhalis; [8]) | MIC against P. vulgaris (Proteus vulgaris; [10])
12.5 µg/mL: MIC (E. coli DH5α) | MIC against P. mirabilis (Proteus mirabilis; [5]) | MIC against A. hydrophila (Aeromonas hydrophila; [9])
50 µg/mL: MIC against C. diversus (Citrobacter diversus; [1]) | MIC against S. marcescens (Serratia marcescens; [2]) | MIC against P. aeruginosa (Pseudomonas aeruginosa; [6])

PRT527 (CPCPHTNSFATGCVVNGGDVRCSCKAGYTGTQCERCAPGYFGNPQKFGGSCQP; listed as Homo sapiens)
12.5 µg/mL: MIC against E. coli BL21 (E. coli BL21; 96-well plate, 37° C., 10 h) | MIC against K. pneumonia (Klebsiella pneumonia; 96-well plate, 37° C., 10 h) | MIC against M. catarrhalis (Moraxella catarrhalis; 96-well plate, 37° C., 10 h)
25 µg/mL: MIC against C. diversus (Citrobacter diversus; 96-well plate, 37° C., 10 h) | MIC against S. marcescens (Serratia marcescens; 96-well plate, 37° C., 10 h) | MIC against P. mirabilis (Proteus mirabilis; 96-well plate, 37° C., 10 h) | MIC against E. cloacae (Enterobacter cloacae; 96-well plate, 37° C., 10 h)
50 µg/mL: MIC (E. coli DH5α) | MIC against P. aeruginosa (Pseudomonas aeruginosa; 96-well plate, 37° C., 10 h) | MIC against A. hydrophila (Aeromonas hydrophila; 96-well plate, 37° C., 10 h) | MIC against P. vulgaris (Proteus vulgaris; 96-well plate, 37° C., 10 h)
